Results published in patent publication US20110257074A1, “METHOD FOR THE PURIFICATION OF SUBSTITUTED CYCLOPENT-2-EN-1-ONE CONGENERS AND SUBSTITUTED 1,3-CYCLOPENTADIONE CONGENERS FROM A COMPLEX MIXTURE USING COUNTERCURRENT SEPARATION” (Metaproteomics, LLC, priority 2008, published 2011).

Legend:
[1] = Shake-flask liquid distribution ratio (Kd), Hexane:Water:Buffer 10:9:1 solvent system; assay type: physicochemical
Method: Several shake-flask experiments were conducted to test several solvent systems and determine the liquid distribution ratio (Kd) and partition coefficient values for optimal separations. Partition coefficient values derived from shake-flask experiments are a reliable predictor of countercurrent chromatographic behavior. Kd is the concentration of the analyte in the upper phase divided by the concentration of the analyte in the lower phase and, in the alternative, may be listed as Ku/l.
General Procedure and Parameters for Shake Flask Experiments: Addition of 1 mL of the stock buffer at a known pH. Addition of the other necessary solvents to make up the system. Addition of the analyte mixture dissolved in hexane at 400 mg/mL. Final analyte concentration in the shake flask is 0.1 mg/mL. The flask was capped and mixed (by a vortex mixer) for 10 seconds. An aliquot was taken from the upper phase for HPLC analysis, and additionally a separate aliquot was taken from the lower phase for HPLC analysis from each flask. Each component was analyzed by HPLC and integrated using Shimadzu Class VP Software version 7.3 SP1.

[2] = Partition coefficient in trial HSCCC countercurrent separations of THIAA; assay type: physicochemical
Method: All HSCCC experimentation was conducted on a CCC-1000 J-type three-coiled planetary motion HSCCCC (Pharma-Tech Research Corp., Baltimore, Md., USA). The rotation radius is 7.5 cm, and 3×108 mL PTFE Teflon coils with an inner diameter of 1.6 mm, an outer diameter of 2.7 mm, and beta values of 0.47 to 0.73 for all coils. This was coupled with Shimadzu (Kyoto, Japan) liquid chromatography instrumentation: LC-20AT pump, DGU-20A5 degasser, CBM-20A controller, and SPD-10AV UV detector. A preparative Rheodyne (Rohnert Park, Calif. USA) 3725i-038 injector was in line with a 3.8 mL sample loop (changed to 10 mL for entry 7). The sample was monitored at 254 nm and 314 nm during the course of the run.
KU/L values for THIAA were determined in a variety of HEMWat solvent systems according to the shake-flask partitioning assay. Two solvent systems, referred to as A and B, provided K values within the range 1.5-2.5 and with significant differences between THIAA congeners (•K). For these reasons solvent systems A and B were selected for further development on the HSCCC (Table 9). […] The entries in Table 10 correspond to seven trial THIAA HSCCC purifications; entries 1-3 were conducted using solvent system A; entries 4-7 used solvent system B. Because of the difference in THIAA concentration between the shake-flask assay (0.1 mg/mL, 0.273 mM) and the HSCCC sample loop (100 mg/mL; 273 mM), aqueous phase buffer concentrations of 1.2 M (entries 1-3, Table 10) and 555 mM (entries 4-7, Table 10) were employed for the HSCCC trials. Entry 3 in Table 10 uses a bi-phasic sample-loop injection (solvent C, Table 9) consisting of 1.9 mL of upper phase (200 mg/mL THIAA, 0.55M) and 1.9 mL of lower phase (6.5M NH4HAc aq.). A switching volume was employed in entries 2, 6 and 7 in order to assess the elution-extrusion protocol as reported by Pauli et al.
Entries 4 & 5 Table 10, examine the effect of increasing the pH for solvent system B on the resolution between THIAA congeners. We reasoned that increased pH leads to a greater concentration of the ionized form of the THIAA (conjugate base) thus resulting in greater amounts of THIAA retained in the aqueous stationary phase i.e., increased retention volume (Vr).

[3] = trial 1, solvent system A, ascending elution, 680 rpm, 4 mL/min, 3.8 mL sample loop
[4] = trial 2, solvent system A, switching volume 320 mL, ascending elution, 680 rpm, 4 mL/min
[5] = trial 3, solvent system A, bi-phasic sample-loop injection (1.9 mL solvent system C), ascending elution
[6] = trial 4, solvent system B′, ascending elution, 680 rpm, 4 mL/min
[7] = trial 5, solvent system B, ascending elution, 680 rpm, 4 mL/min
[8] = trial 6, solvent system B, switching volume 600 mL, ascending elution
[9] = trial 7, solvent system B, switching volume 520 mL, 1.0 g raw material loaded, 10 mL sample loop

| SMILES | THIAA K Value ([1]; pH 4.9, Aug. 5, 2008) | THIAA K Value ([1]; pH 5.5, Aug. 5, 2008) | THIAA K Value ([1]; pH 5.6, Aug. 5, 2008) | THIAA K Value ([1]; pH 6.0, Aug. 5, 2008) | Partition Coefficient [2, 3] | Partition Coefficient [2, 4] | Partition Coefficient [2, 5] | Partition Coefficient [2, 6] | Partition Coefficient [2, 7] | Partition Coefficient [2, 8] | Partition Coefficient [2, 9] |
| --- | --- | --- | --- | --- | --- | --- | --- | --- | --- | --- | --- |
| CCC(C)C(=O)C1=C(O)[C@@](O)(C(=O)CCC(C)C)[C@H](CCC(C)C)C1=O (single isomer, unassigned; (+)) [TH4] | 55.6 | 16.1 | 11.0 | 5.5 | 1.0 | 1.0 | 1.1 | 0.6 | 0.8 | 0.8 | 0.8 |
| CCC(C)C(=O)C1=C(O)C(O)(C(=O)CCC(C)C)C(CCC(C)C)C1=O (stereo not drawn) [TH3, trans tetra ad-isoalpha acid] | 60.3 | 17.8 | 11.4 | 5.5 |  |  |  |  |  |  |  |
| CC(C)CCC(=O)[C@]1(O)C(O)=C(C(=O)CC(C)C)C(=O)[C@H]1CCC(C)C [TH5, (+)-(4R,5S)-3,4-dihydroxy-2-(3-methylbutanoyl)-5-(3-methylbutyl)-4-(4-methylpentanoyl)cyclopent-2-en-1-one] | 32.8 | 9.5 | 6.6 | 3.3 | 1.4 | 1.4 | 1.4 | 0.9 | 1.3 | 1.3 | 1.5 |

The remaining lines, values ahead:

| THIAA K Value ([1]; pH 4.9, Aug. 5, 2008) | THIAA K Value ([1]; pH 5.5, Aug. 5, 2008) | THIAA K Value ([1]; pH 5.6, Aug. 5, 2008) | THIAA K Value ([1]; pH 6.0, Aug. 5, 2008) | Partition Coefficient [2, 3] | Partition Coefficient [2, 4] | Partition Coefficient [2, 5] | Partition Coefficient [2, 6] | Partition Coefficient [2, 7] | Partition Coefficient [2, 8] | Partition Coefficient [2, 9] | SMILES |
| --- | --- | --- | --- | --- | --- | --- | --- | --- | --- | --- | --- |
| 16.5 | 4.2 | 3.0 | 1.5 | 2.0 | 2.0 | 2.1 | 1.7 | 2.5 | 2.7 | 2.6 | CC(C)CCC(=O)[C@]1(O)C(O)=C(C(=O)C(C)C)C(=O)[C@H]1CCC(C)C [TH1, (+)-(4R,5S)-3,4-dihydroxy-2-isobutyryl-5-(3-methylbutyl)-4-(4-methylpentanoyl)cyclopent-2-en-1-one] |
| 10.8 | 2.5 | 1.8 | 0.9 |  |  |  |  |  |  |  | CC(C)CCC(=O)[C@@]1(O)C(O)=C(C(=O)C(C)C)C(=O)[C@H]1CCC(C)C [TH2, (−)-(4S,5S)-3,4-dihydroxy-2-isobutyryl-5-(3-methylbutyl)-4-(4-methylpentanoyl)cyclopent-2-en-1-one] |
